Results: patent US20240358732A1, “Use of Rutin and Rapamycin in the Preparation of Synergistic Chemotherapy Drugs for Tumor Inhibition” (priority 2023, published 2024)

Assays:
[1] = test system: MDA-MB-231/HBF1203 tumors; experiment: Breast cancer xenograft treatment trial; format: in vivo, mice; settings: end of 8th week
[2] = test system: PC3-only tumors; experiment: Preclinical treatment trial, PC3-only tumor volume; format: in vivo, mice; settings: single agents; absence of stromal cells
Procedure: All experimental mouse experiments were performed strictly following the relevant regulations of the experimental animals. Immuno-deficient mice(NOD-SCID mice, ICR) (body weight about 25 g) aged 6-8 weeks were used for animal experiments related to the present patent. Stromal cells PSC27 and epithelial cells PC3 were mixed at a predetermined ratio of 1:4, and each graft contained 1.25×10^6 cells for tissue remodeling. The xenograft tumors were implanted into mice by subcutaneous transplantation, and the animals were euthanized 8 weeks after the end of the transplantation surgery. Tumor volume was calculated according to the following formula: V=(π/6)×((1+w)/2)^3 (V, volume; 1, length; w, width). In a preclinical treatment trial, subcutaneously transplanted mice were fed with a standard experimental diet, after 2 weeks chemotherapy drugs mitoxantrone (MIT, dose: 0.2 mg/kg) and/or Rutin (500 μl, dose: 10 mg/kg), Rapamycin (500 μl, dose: 10 mg/kg) via intraperitoneal administration. The time points are as follows: all three drugs were administered to mice on the first day of the third, fifth and seventh weeks. A total of 3 cycles of administration was carried out throughout the course of treatment, and each cycle lasted for 2 weeks. After the course of treatment, mouse tumors were harvested for volume measurement and histological analysis. […] The chemotherapy experiment ended at the end of the 8th week, and the mice were dissected immediately after sacrifice, and the xenograft tumors were collected and used for pathological system analysis.

[3] = test system: IL8 (interleukin 8); experiment: NMA library screen: expression of SASP factor IL8 in PSC27 cells; format: cell-based, human; settings: senescent PSC27 cells
[4] = biological target: ATM and TRAF6 interaction (Homo sapiens, UniProt Q13315+Q9Y4K3); experiment: p-ATM-mediated IP and immunoblot in PSC27 cells; format: cell-based; settings: BLEO and/or rutin
Sequence of ATM and TRAF6 interaction (Q13315 2-3056 limits assumed): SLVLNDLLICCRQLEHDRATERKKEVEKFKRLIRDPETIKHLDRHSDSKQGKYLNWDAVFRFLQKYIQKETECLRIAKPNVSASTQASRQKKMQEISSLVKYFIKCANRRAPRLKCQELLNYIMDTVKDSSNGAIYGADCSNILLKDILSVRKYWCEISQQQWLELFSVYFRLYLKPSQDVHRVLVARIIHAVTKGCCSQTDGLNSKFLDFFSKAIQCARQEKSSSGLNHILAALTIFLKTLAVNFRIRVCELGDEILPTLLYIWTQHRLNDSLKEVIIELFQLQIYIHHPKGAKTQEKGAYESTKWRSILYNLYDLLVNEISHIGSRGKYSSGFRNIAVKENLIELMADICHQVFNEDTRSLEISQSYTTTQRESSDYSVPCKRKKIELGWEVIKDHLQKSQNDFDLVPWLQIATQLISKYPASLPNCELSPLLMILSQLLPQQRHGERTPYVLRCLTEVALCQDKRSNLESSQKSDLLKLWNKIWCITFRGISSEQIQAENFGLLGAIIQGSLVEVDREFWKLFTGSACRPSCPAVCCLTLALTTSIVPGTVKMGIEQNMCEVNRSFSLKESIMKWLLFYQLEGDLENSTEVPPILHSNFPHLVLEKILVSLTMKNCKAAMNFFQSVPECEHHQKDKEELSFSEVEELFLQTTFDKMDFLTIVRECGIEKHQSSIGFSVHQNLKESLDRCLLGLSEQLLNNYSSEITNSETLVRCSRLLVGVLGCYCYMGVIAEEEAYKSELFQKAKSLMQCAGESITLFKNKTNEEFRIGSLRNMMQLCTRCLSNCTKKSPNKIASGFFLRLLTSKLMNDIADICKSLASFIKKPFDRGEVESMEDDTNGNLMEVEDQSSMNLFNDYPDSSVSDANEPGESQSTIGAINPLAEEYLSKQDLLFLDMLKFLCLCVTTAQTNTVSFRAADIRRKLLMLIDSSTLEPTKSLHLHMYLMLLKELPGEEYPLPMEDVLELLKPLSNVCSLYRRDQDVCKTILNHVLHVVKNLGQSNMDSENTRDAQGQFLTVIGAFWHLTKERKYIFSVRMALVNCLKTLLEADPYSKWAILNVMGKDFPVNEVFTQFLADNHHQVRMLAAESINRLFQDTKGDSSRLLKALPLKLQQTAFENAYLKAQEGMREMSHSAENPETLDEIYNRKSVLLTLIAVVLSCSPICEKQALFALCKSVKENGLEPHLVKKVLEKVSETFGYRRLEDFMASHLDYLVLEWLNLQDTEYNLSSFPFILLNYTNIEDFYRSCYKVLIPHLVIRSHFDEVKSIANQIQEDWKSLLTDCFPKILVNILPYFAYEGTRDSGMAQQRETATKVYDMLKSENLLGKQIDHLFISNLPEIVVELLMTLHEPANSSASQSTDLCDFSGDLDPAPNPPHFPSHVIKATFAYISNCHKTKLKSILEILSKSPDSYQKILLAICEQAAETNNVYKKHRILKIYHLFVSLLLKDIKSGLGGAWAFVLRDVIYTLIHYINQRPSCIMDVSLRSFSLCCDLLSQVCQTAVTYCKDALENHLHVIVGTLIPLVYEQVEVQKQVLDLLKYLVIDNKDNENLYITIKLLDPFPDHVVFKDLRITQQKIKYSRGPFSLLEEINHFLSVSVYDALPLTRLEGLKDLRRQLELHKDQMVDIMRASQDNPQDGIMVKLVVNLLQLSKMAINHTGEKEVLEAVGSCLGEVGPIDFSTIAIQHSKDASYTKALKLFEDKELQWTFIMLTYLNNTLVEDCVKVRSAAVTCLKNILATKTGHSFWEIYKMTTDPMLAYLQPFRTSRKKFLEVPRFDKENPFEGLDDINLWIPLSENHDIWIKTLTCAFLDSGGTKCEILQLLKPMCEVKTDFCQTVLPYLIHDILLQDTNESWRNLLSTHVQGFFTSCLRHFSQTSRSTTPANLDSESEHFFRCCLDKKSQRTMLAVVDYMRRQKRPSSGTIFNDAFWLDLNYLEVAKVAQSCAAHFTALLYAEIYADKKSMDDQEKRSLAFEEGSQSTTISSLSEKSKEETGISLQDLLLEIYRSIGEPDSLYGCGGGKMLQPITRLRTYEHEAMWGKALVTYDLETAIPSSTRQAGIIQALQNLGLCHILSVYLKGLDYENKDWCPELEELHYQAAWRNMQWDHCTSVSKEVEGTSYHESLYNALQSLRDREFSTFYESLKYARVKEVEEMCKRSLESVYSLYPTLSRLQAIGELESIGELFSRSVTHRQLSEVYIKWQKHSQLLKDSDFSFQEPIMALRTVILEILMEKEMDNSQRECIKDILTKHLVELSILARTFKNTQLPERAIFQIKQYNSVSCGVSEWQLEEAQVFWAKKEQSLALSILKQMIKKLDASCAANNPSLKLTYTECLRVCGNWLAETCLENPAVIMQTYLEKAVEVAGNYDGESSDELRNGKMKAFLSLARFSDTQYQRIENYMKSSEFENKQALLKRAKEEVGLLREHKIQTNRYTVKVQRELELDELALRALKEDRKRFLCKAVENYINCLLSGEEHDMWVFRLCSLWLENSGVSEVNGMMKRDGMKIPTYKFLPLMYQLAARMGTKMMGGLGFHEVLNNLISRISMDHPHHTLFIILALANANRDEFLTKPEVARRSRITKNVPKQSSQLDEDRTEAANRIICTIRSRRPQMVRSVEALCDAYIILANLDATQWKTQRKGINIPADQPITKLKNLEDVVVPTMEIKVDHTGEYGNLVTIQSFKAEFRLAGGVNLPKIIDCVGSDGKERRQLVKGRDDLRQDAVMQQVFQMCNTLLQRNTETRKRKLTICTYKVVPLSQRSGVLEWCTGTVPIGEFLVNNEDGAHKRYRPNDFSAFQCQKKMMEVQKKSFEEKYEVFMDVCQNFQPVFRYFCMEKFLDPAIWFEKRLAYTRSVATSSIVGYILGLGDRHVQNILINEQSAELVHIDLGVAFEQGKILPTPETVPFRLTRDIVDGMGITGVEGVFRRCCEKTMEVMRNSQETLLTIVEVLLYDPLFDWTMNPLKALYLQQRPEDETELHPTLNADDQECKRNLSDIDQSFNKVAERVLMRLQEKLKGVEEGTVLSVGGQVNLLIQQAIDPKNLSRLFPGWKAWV
Sequence of ATM and TRAF6 interaction (Q9Y4K3 whole entry): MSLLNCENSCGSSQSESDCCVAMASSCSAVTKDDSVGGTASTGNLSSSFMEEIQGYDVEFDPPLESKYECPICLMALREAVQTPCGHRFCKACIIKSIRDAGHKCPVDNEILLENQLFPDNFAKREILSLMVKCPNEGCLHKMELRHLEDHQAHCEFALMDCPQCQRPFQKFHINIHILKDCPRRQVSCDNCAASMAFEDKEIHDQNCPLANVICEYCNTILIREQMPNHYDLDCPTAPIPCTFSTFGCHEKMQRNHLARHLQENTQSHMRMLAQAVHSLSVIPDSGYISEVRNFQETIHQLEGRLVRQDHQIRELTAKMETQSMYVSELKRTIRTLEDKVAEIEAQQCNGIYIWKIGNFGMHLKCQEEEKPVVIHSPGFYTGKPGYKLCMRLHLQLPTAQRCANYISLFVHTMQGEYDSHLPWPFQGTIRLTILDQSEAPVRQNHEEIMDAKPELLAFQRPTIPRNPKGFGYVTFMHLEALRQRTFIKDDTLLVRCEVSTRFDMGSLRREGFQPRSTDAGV

[5] = test system: PC3, DU145, M12 and LNCaP; experiment: Proliferation, migration and invasion of prostate cancer cells cultured with PSC27 conditioned media; format: cell-based, human; settings: rutin final concentration 100 μM
[6] = biological target: ATM and HIF1α interaction (Homo sapiens, UniProt Q13315+Q16665); experiment: p-ATM-mediated IP and immunoblot in PSC27 cells; format: cell-based; settings: BLEO and/or rutin
Sequence of ATM and HIF1α interaction (Q13315 2-3056 limits assumed): as the sequence (Q13315 2-3056 limits assumed) above
Sequence of ATM and HIF1α interaction (Q16665 whole entry): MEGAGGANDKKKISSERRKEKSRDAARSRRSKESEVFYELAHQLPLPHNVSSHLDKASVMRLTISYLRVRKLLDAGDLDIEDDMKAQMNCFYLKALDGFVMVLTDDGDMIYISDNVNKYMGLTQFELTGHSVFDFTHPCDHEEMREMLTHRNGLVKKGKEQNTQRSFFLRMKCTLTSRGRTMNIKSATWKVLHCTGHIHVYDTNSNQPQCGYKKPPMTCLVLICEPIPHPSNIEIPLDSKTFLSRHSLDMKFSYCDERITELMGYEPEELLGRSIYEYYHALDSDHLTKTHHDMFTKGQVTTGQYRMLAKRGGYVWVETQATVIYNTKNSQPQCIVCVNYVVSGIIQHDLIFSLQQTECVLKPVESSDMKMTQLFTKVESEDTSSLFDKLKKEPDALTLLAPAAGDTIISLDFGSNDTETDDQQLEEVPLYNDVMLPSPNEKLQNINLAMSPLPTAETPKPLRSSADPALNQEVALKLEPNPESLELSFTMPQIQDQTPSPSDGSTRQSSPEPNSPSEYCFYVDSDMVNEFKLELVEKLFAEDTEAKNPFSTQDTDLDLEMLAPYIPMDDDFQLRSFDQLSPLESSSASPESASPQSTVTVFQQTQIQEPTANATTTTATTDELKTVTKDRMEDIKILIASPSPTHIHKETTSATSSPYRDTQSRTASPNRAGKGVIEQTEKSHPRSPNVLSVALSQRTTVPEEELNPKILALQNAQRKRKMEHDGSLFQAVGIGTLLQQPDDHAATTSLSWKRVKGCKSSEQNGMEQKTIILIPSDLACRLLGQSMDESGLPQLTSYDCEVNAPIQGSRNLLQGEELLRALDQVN

[7] = test system: ATM, TAK1, p38MAPK, PI3K/Akt/mTOR, IL8; experiment: Immunoblot of DDR pathways and SASP expression in PSC27 cells; format: cell-based, human; settings: for ATM activation / phosphorylation: BLEO-induced senescence, with or without rutin
[8] = test system: PSC27 cells; experiment: BrdU incorporation of PSC27 cells; format: cell-based, human; settings: BLEO 50 μg/ml induces senescence, rutin tested on proliferating and BLEO-induced senescent cells
[9] = test system: PC3/PSC27 tumors; experiment: SA-β-Gal staining of PC3/PSC27 tumor tissue; format: in vivo, mice; settings: PC3/PSC27 tumor lesions
Procedure: Comparison of cell senescence in PC3/PSC27 tumor-bearing animal lesions in preclinical experiments. Representative pictures after SA-β-Gal staining. […] Senescence-associated β-galactosidase (SA-β-Gal) staining was performed following a previously reported procedure (Debacq-Chainiaux et al., 2009). Briefly, cells in culture dishes were washed with PBS and fixed at room temperature. Cells were fixed in 2% formaldehyde and 0.2% glutaraldehyde for 3 minutes. SA-β-Gal was used for staining with freshly prepared staining solution overnight at 37° C. Images were taken on the next day and the percentage of positive cells per unit area was calculated.

[10] = test system: PSC27 cells; experiment: ROS production in PSC27 cells with DCFH-DA; format: cell-based, human
Excerpt: FIG. 23. Measurement of Reactive Oxygen Species (ROS) production in PSC27 cells under various conditions with DCFH-DA, a fluorescent reagent. Left, representative images, scale bar, […]; Right, comparative statistics.

[11] = test system: PC3 cells; experiment: Dose-response curves of PC3 cells with PSC27-BLEO CM exposed to MIT; format: cell-based, human; settings: PC3 exposed to MIT at 0.1-1.0 μM; rutin 100 μM
[12] = test system: TRAF6-TAK1 interaction; experiment: p-TAK1-mediated IP and immunoblot in PSC27 cells; format: cell-based, human; settings: BLEO and/or rutin
[13] = test system: PSC27 cells; experiment: SA-β-Gal staining of PSC27 cells; format: cell-based, human; settings: BLEO 50 μg/ml induces senescence, rutin tested on proliferating and BLEO-induced senescent cells
[14] = test system: p65 and p50 (NF-κB); experiment: Immunoblot after separation of the nucleoplasm, PSC27 cells; format: cell-based, human
Procedure: Immunoblot analysis of cell lysates of PSC27 cells upon BELO and/or rutin intervention after separation of the nucleoplasm. C, cytoplasmic; N; Nuclear. Lamin A/C, loading control for nuclear proteins. GAPDH, loading control for cytoplasmic proteins. Cell lysate-derived proteins were separated using NuPAGE 4-12% Bis-Tris gel and transferred to nitrocellulose membranes (Life Technologies). The blot was blocked with 5% skimmed milk for 1 h at room temperature, incubated overnight at 4° C. with the desired primary antibody at the manufacturer's protocol concentration, and then incubated with horseradish peroxidase-conjugated secondary antibody (Santa Cruz) for 1 h. Blot signal detection was carried out with enhanced chemiluminescence (ECL) detection reagent (Millipore) according to the manufacturer's protocol, and ImageQuant LAS 400 Phospho-Imager (GE Healthcare) was used. As a standard protein marker, PageRuler Plus Prestained Protein Ladder (no. 26619) from Thermo Fisher Scientific was used by the inventors.

[15] = test system: PC3, DU145, M12 and LNCaP; experiment: Drug resistance of prostate cancer cells cultured with PSC27 conditioned media; format: cell-based, human; settings: rutin final concentration 100 μM
[16] = test system: SASP factors; experiment: qRT-PCR of typical SASP factors in BLEO-induced senescent PSC27 cells; format: cell-based, human; settings: IL6, IL8, IL1a, IL1β, CXCL3, MMP3, GM-CSF, 20-100 μM tested
[17] = test system: PC3/PSC27 tumors; experiment: Xenografts of PC3 with PSC27 sublines (naive, senescent, pretreated); format: in vivo; settings: PC3 + PSC27^SEN recombinants, SCID mice, 8 weeks, p<0.0001
[18] = test system: PSC27 cells; experiment: RNA-seq / GSEA of PSC27 cells; format: cell-based, human
Procedure: Whole-transcriptome sequencing was performed on the primary human prostate stromal cell line PSC27 under different treatment conditions. Total RNA samples were obtained from stromal cells. Their integrity was verified by Bioanalyzer 2100 (Agilent), RNA was sequenced by Illumina HiSeq X10, and gene expression levels were quantified by software package […]/). Briefly, rRNA was depleted from RNA samples with the RiboMinus Eukaryote Kit (Qiagen, Valencia, CA, USA); and according to the manufacturer's instructions, TruSeq Stranded Total RNA Preparation Kits (Illumina, San Diego, CA, USA) was used to construct a strand-specific RNA-seq library before deep sequencing. Paired-end transcriptomic reads were mapped to a reference genome (GRCh38/hg38), and reference-annotation was performed from Gencode v27 using the Bowtie tool. Duplicate reads were identified using the picard Tools (1.98) script to mark duplicates (https://github.com/broadinstitute/picard), and only non-duplicate reads were retained. Reference splice junctions were provided by reference transcriptome (Ensembl Build 73). FPKM values were calculated with Cufflinks, and Cufflinks maximum likelihood estimation function was used to call differential gene expression. […] Next, Trim Galore (v0.3.0) (http://www.bioinformatics.babraham.ac.uk/projects/trim_galore/) was used to trim the reads, while the quality assessment was carried out by using FastQC (v0.10.0) (http://www.bioinformatics.bbsrc.ac.uk/projects/fastqc/). Subsequently, DAVID bioinformatics platform ( ) and ingenuity Pathways Analysis (IPA) program (http://www.ingenuity.com/index.html) were used. A preliminary analysis of the raw data was performed on a free online platform, Majorbio I-Sanger Cloud Platform (www.i-sanger.com) and the raw data were deposited in the NCBI Gene Expression Omnibus (GEO) database with access code GSE156448. Based on the data obtained from the preliminary analysis of RNA-seq, after analyzing and comparing each differentially expressed significant gene, the genes were sorted using the “wald statistics” obtained from DESeq2. GSEA was performed on the sorting lists of all planning gene sets available in MSigDB (http://software.broadinstitute.org/gsea/msigdb). DESeq2 independent filtering was based on the average of normalized read counts to select genes with very low expression levels. The SASP and GSEA signature were as described in our previous publication (Zhang et al., 2018a).

[19] = test system: PC3/PSC27 tumors; experiment: Preclinical treatment trial, PC3/PSC27 xenograft tumor volume; format: in vivo, mice
[20] = test system: EREG; experiment: ELISA of circulating serum SASP proteins; format: in vivo, mice; settings: mouse serum
Procedure: (§1) FIG. 41. Circulating serum proteins of SASP typical factors in mice were examined using ELISA. Left, AREG. Right, EREG. […] The time points are as follows: all three drugs were administered to mice on the first day of the third, fifth and seventh weeks. A total of 3 cycles of administration was carried out throughout the course of treatment, and each cycle lasted for 2 weeks. After the course of treatment, mouse tumors were harvested for volume measurement and histological analysis. […] The chemotherapy experiment ended at the end of the 8th week, and the mice were dissected immediately after sacrifice, and the xenograft tumors were collected and used for pathological system analysis. […] For alternative chemotherapeutics, vincristine or vinblastine (dose: 1.0 mg/kg) is administered intraperitoneally.

[21] = test system: PC3/PSC27 xenografts; experiment: DNA damage and apoptosis of cancer cells in PC3/PSC27 xenografts; format: in vivo, mice; settings: tumors dissected 7 days after initiation of treatment
[22] = test system: SASP factors, p16^INK4a, p21^CIP1; experiment: qRT-PCR of SASP factors and senescence markers in tumor-bearing sites; format: in vivo, mice
Excerpt: Varying expression levels of transcripts between the groups of a set of typical SASP molecules in tumor-bearing sites of mice according to the detection and analysis of fluorescent quantitative PCR (qRT-PCR). Data in each group is normalized for the sample with the lowest expression value within the group. IL6, IL8, AREG and ILla are included. […] Varying expression levels of transcripts between the groups of another set of typical SASP molecules in tumor-bearing sites of mice according to the detection and analysis of fluorescent quantitative PCR (qRT-PCR). Data in each group is normalized for the sample with the lowest expression value within the group. MMP1, MMP3, ANGPTL4 and SPINK1 are included. […] Varying expression levels of transcripts between the groups of a set of cellular senescence-specific biomarkers in tumor-bearing sites of mice according to the detection and analysis of fluorescent quantitative PCR (qRT-PCR). […] After the reaction was completed, the amplification of each gene was checked by software analysis, the corresponding threshold cycle number was derived, and the relative expression of each gene was calculated using the 2-ΔΔCt method. The peak and waveform of the melting curve was analyzed to determine whether the obtained amplification product was a specific single target fragment.

[23] = test system: AREG; experiment: ELISA of circulating serum SASP proteins; format: in vivo, mice; settings: mouse serum
Procedure: as §1

[24] = FIG. 14, senescence induction and rutin intervention, P<0.01, Fold change>4
[25] = senescent PSC27 upon rutin, 2-fold change of log 2-based, p<0.01

## CC[C@]1(O)C[C@H]2CN(CCc3c([nH]c4ccccc34)[C@@](C(=O)OC)(c3cc4c(cc3OC)N(C=O)[C@H]3[C@@](O)(C(=O)OC)[C@H](OC(C)=O)[C@]5(CC)C=CCN6CC[C@]43[C@@H]65)C2)C1 [VIN, vincristine]
[1]
  outcome of combination of the chemotherapeutic drug with rutin and rapamycin: did not exhibit the characteristics of effective drug combination therapy

## CO[C@H]1C[C@@H]2CC[C@@H](C)[C@@](O)(O2)C(=O)C(=O)N2CCCC[C@H]2C(=O)O[C@H]([C@H](C)C[C@@H]2CC[C@@H](O)[C@H](OC)C2)CC(=O)[C@H](C)/C=C(\C)[C@@H](O)[C@@H](OC)C(=O)[C@H](C)C[C@H](C)/C=C/C=C/C=C/1C [rapamycin]
[2]
  effect on PC3-only tumors: did not show a remarkable effect

## C[C@@H]1O[C@@H](OC[C@H]2O[C@@H](Oc3c(-c4ccc(O)c(O)c4)oc4cc(O)cc(O)c4c3=O)[C@H](O)[C@@H](O)[C@@H]2O)[C@H](O)[C@H](O)[C@H]1O [rutin]
[3]
  expression of interleukin 8 (IL8), a hallmark SASP factor (senomorphic potential): prominent efficacy in downregulating
[4]
  interaction of ATM and TRAF6: significantly weakens
[5]
  gain-of-functions (proliferation, migration, invasion; malignancy) conferred by CM from senescent PSC27 cells: almost completely disappeared
[6]
  mutual interaction between ATM and HIF1α: subject to interruption
[7]
  ATM activation / phosphorylation: remained largely unaffected
[7]; in the presence of rutin
  TAK1 phosphorylation, p38MAPK activation, PI3K/Akt/mTOR activation and IL8 upregulation after BLEO: generally diminished
[8]
  BrdU incorporation: remained largely unchanged
[9]
  tissue senescence by SA-β-GAL staining: neither promote nor suppress senescence
[10]; PSC27, BLEO-induced senescent
  ROS generation by senescent cells: significantly suppressed
[10]; PSC27, proliferating
  production of ROS in proliferating cells: did not change
[11]
  cancer resistance conferred by the CM of senescent stromal cells: remarkably downregulate cancer resistance
[12]
  TAK1 activation and TRAF6-TAK1 interaction: considerably restrained
[13]
  SA-β-Gal staining: remained largely unchanged
[14]
  cytoplasm-to-nucleus translocation of p65 and p50 upon cellular senescence: largely abolished
[2]
  effect on PC3-only tumors: did not show a remarkable effect
[15]
  counteraction of the increase in cancer cell viability upon senescent stromal cell-derived CM: about 80%
[16]
  concentration with the most optimal effects in restraining expression of typical SASP components: 100 µM
[17]
  tumor volumes after pretreatment of PSC27^SEN cells in vitro: considerably reduced tumor volumes
[18]; [24]
  genes down-regulated: 3733 genes
  genes up-regulated: 886 genes
[18]; RNA-seq, senescent PSC27 cells treated with rutin
  transcriptome-wide expression of SASP factors: most of the SASP factors were indeed downregulated
[18]; senescent PSC27 cells treated with rutin
  GSEA SASP signature: specifically and significantly inhibited SASP
[18]; [25]
  transcripts downregulated: 3733 transcripts
  transcripts significantly modified: 4619 transcripts
  transcripts upregulated: 886 transcripts

## CC[C@]1(O)C[C@H]2CN(CCc3c([nH]c4ccccc34)[C@@](C(=O)OC)(c3cc4c(cc3OC)N(C=O)[C@H]3[C@@](O)(C(=O)OC)[C@H](OC(C)=O)[C@]5(CC)C=CCN6CC[C@]43[C@@H]65)C2)C1 [vincristine]
[19]; PC3 and PC3/PSC27 tumors
  benefit of the chemotherapeutic drug from combined use of rutin and/or rapamycin: did not show such benefits

## bleomycin [reference compound]
[7]
  ATM activation / phosphorylation: markedly activated
[8]
  BrdU incorporation: reduced BrdU incorporation
[10]; PSC27 cells after BLEO genotoxicity
  ROS levels in contrast to normal counterparts: remarkably elevated ROS levels
[13]
  SA-β-Gal staining: elevated positivity

## COc1cccc2c1C(=O)c1c(O)c3c(c(O)c1C2=O)C[C@@](O)(C(=O)CO)C[C@@H]3O[C@H]1C[C@H](N)[C@H](O)[C@H](C)O1 [doxorubicin]
[1]
  outcome of combination of the chemotherapeutic drug with rutin and rapamycin: largely reproduced the results of preclinical experiments performed with PCa system

## O=C1c2c(O)ccc(O)c2C(=O)c2c(NCCNCCO)ccc(NCCNCCO)c21 [MIT, mitoxantrone]
[20]
  circulating EREG level: elevated levels
[9]
  tissue senescence by SA-β-GAL staining: considerable tissue senescence
[21]
  DNA damage (DDR) in cancer cells: substantial
  apoptosis / cell death in cancer cells: substantial
[2]
  effect on PC3-only tumors: caused shrinkage
[22]; IL6, IL8, AREG, IL1a, MMP1, MMP3, ANGPTL4, SPINK1
  expression of typical SASP factors in tumors: significant upregulation
[22]; p16^INK4a, p21^CIP1 and SA-β-GAL
  typical senescence markers in tumors: induction
[23]
  circulating AREG level: elevated levels
[19]; 8-week regimen, MIT on 1st day of 3rd, 5th, 7th week
  tumor sizes in contrast to placebo: remarkably reduced tumor sizes
[19]; PC3/PSC27 tumors, MIT alone, end of 8th week
  tumor volume decrease: 35.5%
